In US20060018846A1, “Animo substituted hydroxyphenyl benzophenone derivatives” (priority 2002, published 2006):

How the values were obtained:
[1] = UV spectrum (absorption maximum and molar extinction); type: physicochemical
Excerpt: UV Spectrum (in Dioxan) • Maximum at 359 nm; e=34724
UV Spectrum (in Dioxan): • Maximum at 360 nm; e=37900
UV Spectrum (in Dioxan): • Maximum at 359 nm; e=35080
UV-Spectrum in Dioxan: Max. 351 nm, mol Ext. 65551
UV Spectrum in Ethanol: Max. 354 nm, mol. Ext. 65296

[2] = Solubility in Finsolve TN (C 12-15 alkylbenzoate); type: physicochemical
Excerpt: It has a good solubility for example in Finsolve TN (C 12-15 alkylbenzoate)>10%.
The obtained compound is an amorphous, yellow powder Solubility in Finsolve TN>30%

UV spectrum: Maximum (wavelength; 1. Maximum where two are given) ([1]; in Dioxan) [nm] | UV spectrum: e / mol Ext. at the maximum (1. Maximum where two are given) ([1]; in Dioxan) | UV spectrum: Max. (wavelength) ([1]; in Ethanol) [nm] | UV spectrum: mol. Ext. ([1]; in Ethanol) | Solubility in Finsolve TN (C 12-15 alkylbenzoate) [2] [%] | UV spectrum: 2. Maximum (wavelength) ([1]; in Dioxan) [nm] | UV spectrum: e at 2. Maximum ([1]; in Dioxan) | Compound
351 | 38565 | – | – | – | – | – | CCN(CC)c1ccc(C(=O)c2ccccc2C(=O)OC2CC(C)CCC2C(C)C)c(O)c1 (centres unmarked) [Example 6]
359 | 35080 | – | – | – | – | – | CCN(CC)c1ccc(C(=O)c2ccccc2C(=O)N(CCO)CCO)c(O)c1 [Example 10]
– | – | 354 | 65296 | > 30 | – | – | CCN(CC)c1ccc(C(=O)c2ccccc2C(=O)OCC(C)(C)COC(=O)c2ccccc2C(=O)c2ccc(N(CC)CC)cc2O)c(O)c1 [Example 12]
351 | 65551 | – | – | > 10 | – | – | CCN(CC)c1ccc(C(=O)c2ccccc2C(=O)OC/C=C/COC(=O)c2ccccc2C(=O)c2ccc(N(CC)CC)cc2O)c(O)c1 [Example 11]
359 | 34724 | – | – | – | – | – | CCN(CC)c1ccc(C(=O)c2ccccc2C(=O)Nc2ccccc2)c(O)c1 [Example 8]
336 | 57318 | – | – | – | 360 | 49032 | CCN(CC)c1ccc(C(=O)c2ccccc2C(=O)Nc2ccc(-c3nc4ccc(C)cc4s3)cc2)c(O)c1 [Example 2]
358 | 34848 | – | – | – | – | – | CCN(CC)c1ccc(C(=O)c2ccccc2C(=O)Nc2ccc(C(N)=O)cc2)c(O)c1 [Example 4]
360 | 37900 | – | – | – | – | – | CCN(CC)c1ccc(C(=O)c2ccccc2C(=O)N2CCOCC2)c(O)c1 [Example 9]
